Laboratory results taken from ChEMBL document CHEMBL3862039 (ACS Med Chem Lett, 2016).
Changes are numbered by the printed parent chain. Calls of active or inactive are those of the source. The calls are words filed in the database; no cut-off is given here.

Columns and labels:
[1] = biological target: T1, Androgen receptor (Homo sapiens) (UniProt P10275); assay: Antagonist activity at AR in human LNCAP cells assessed as suppression of DHT-induced receptor transcriptional activity at 500 nM after 24 hrs by dual luciferase reporter gene assay; format: cell-based
T1 sequence (whole entry): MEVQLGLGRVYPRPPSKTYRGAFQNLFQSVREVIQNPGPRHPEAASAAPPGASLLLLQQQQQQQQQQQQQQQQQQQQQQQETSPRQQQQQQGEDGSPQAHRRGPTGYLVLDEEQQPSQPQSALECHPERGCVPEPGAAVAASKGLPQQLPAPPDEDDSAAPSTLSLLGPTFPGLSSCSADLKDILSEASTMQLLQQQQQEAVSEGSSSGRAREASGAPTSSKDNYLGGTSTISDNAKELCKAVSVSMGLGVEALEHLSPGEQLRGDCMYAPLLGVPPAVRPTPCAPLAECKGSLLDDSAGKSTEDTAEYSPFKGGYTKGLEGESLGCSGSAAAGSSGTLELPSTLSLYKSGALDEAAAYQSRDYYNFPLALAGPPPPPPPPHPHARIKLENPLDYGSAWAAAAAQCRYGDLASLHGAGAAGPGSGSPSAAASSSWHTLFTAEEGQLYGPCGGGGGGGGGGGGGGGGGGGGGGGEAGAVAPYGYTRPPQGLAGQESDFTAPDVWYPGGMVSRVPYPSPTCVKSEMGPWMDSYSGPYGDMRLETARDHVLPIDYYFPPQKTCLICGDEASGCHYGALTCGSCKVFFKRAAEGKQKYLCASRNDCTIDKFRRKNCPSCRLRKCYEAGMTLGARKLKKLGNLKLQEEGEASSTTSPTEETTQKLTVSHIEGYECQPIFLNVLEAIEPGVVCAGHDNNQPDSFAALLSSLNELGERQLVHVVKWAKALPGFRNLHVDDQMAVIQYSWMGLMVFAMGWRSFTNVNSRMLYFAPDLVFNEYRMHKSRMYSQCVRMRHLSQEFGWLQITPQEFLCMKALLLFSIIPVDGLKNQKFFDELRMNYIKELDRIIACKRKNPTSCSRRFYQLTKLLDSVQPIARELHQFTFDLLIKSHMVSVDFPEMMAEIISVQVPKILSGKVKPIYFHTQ

[2] = biological target: T1, Androgen receptor (Homo sapiens); conditions: LNCaP, at 5 µM
Description: Antagonist activity at AR in human LNCAP cells assessed as suppression of DHT-induced receptor transcriptional activity at 5 uM after 24 hrs by dual luciferase reporter gene assay

PC-3 [3] = assay: Agonist activity at AR W741C/T877A double mutant (unknown origin) expressed in human PC3 cells assessed as receptor transactivation at 5 uM after 24 hrs by PSA-luciferase reporter gene assay; format: cell-based
PC-3 [4] = assay: Cytotoxicity against human PC3 cells assessed as cell growth inhibition after 72 hrs by MTT assay; format: functional, cell-based
Androgen receptor [5] = biological target: T2, Androgen receptor (Rattus norvegicus, UniProt P15207); assay: (§1) Displacement of fluormone-DHT green from His/GST-tagged rat AR ligand binding domain after 4 to 8 hrs by fluorescence polarization assay
T2 sequence (P15207 whole entry): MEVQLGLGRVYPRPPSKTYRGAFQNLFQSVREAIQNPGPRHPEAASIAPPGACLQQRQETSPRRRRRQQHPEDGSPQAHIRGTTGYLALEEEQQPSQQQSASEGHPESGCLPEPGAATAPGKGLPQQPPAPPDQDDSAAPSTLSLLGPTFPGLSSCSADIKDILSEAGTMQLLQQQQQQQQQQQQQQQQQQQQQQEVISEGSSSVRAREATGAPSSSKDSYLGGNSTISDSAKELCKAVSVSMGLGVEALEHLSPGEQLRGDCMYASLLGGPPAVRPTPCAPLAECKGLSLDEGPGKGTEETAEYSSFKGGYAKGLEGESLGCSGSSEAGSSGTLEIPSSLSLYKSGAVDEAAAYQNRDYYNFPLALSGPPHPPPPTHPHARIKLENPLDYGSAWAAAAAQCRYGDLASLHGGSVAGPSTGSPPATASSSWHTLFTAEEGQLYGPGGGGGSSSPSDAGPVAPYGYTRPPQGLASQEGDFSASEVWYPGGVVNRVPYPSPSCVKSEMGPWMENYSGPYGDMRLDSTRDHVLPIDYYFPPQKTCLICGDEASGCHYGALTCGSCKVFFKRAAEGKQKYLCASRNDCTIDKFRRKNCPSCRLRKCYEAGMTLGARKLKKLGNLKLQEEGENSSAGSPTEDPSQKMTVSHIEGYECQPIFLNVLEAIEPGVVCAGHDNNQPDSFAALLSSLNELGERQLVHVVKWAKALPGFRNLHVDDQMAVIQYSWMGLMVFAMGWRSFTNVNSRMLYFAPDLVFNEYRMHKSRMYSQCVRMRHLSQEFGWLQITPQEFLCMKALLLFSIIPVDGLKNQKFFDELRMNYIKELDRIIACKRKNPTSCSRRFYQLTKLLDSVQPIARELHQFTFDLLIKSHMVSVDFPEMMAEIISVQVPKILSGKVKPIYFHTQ

[6] = biological target: T3, Androgen receptor (Rattus norvegicus) (UniProt P15207); assay: as §1
T3 sequence (whole entry): T2 sequence (P15207 whole entry)

LNCaP = assay: Cytotoxicity against human LNCAP cells assessed as cell growth inhibition after 72 hrs by MTT assay; format: functional, cell-based
[7] = biological target: T1, Androgen receptor (Homo sapiens); assay: Antagonist activity at AR in human LNCAP cells assessed as downregulation of PSA mRNA levels at 5 uM after 24 hrs in presence of DHT by RT-PCR analysis; format: cell-based
[8] = tested on: Androgen receptor (Homo sapiens), P10275 [T878A]; assay: (§2) Antagonist activity at AR T877A mutant (unknown origin) transfected in human PC3 cells assessed as inhibition of DHT-induced receptor transcriptional activation after 24 hrs by PSA-luciferase reporter gene assay; format: cell-based; conditions: PC-3
Androgen receptor [9] = biological target: Androgen receptor (Homo sapiens, UniProt P10275, T878A); assay: as §2; format: cell-based, PC-3
[10] = tested on: T4, Androgen receptor (Homo sapiens), P10275 [F877L]; assay: (§3) Antagonist activity at AR F876L mutant (unknown origin) expressed in human PC3 cells assessed as inhibition of DHT-induced receptor transactivation after 24 hrs by PSA-luciferase reporter gene assay; format: cell-based; conditions: PC-3
T4 sequence (whole entry): T1 sequence (whole entry) with F877L

Androgen receptor [11] = biological target: Androgen receptor (Homo sapiens, UniProt P10275, F877L); assay: as §3; format: cell-based, PC-3
[12] = biological target: T1, Androgen receptor (Homo sapiens); assay: Antagonist activity at AR in human LNCAP cells assessed as downregulation of AR protein expression after 24 hrs by Western blot analysis; format: cell-based
[13] = biological target: T1, Androgen receptor (Homo sapiens); assay: Antagonist activity at AR in human LNCAP cells assessed as downregulation of PSA mRNA levels at 500 nM after 24 hrs in presence of DHT by RT-PCR analysis; format: cell-based
[14] = biological target: T1, Androgen receptor (Homo sapiens); assay: (§4) Antagonist activity at wild type AR in human PC3 cells assessed as suppression of DHT-induced receptor transcriptional activation after 24 hrs by PSA-luciferase reporter gene assay; format: cell-based; conditions: PC-3
Androgen receptor [15] = biological target: T5, Androgen receptor (Homo sapiens, UniProt P10275); assay: as §4; format: cell-based, PC-3
T5 sequence (P10275 whole entry): T1 sequence (whole entry)

[16] = tested on: T4, Androgen receptor (Homo sapiens), P10275 [F877L]; assay: Antagonist activity at AR F876L mutant (unknown origin) transfected in human PC3 cells assessed as suppression of DHT-induced receptor transcriptional activity at 500 nM after 24 hrs by PSA-luciferase reporter gene assay; format: cell-based; conditions: PC-3
cells = conditions: Homo sapiens, PC-3, 24 h
Description: Antagonist activity at AR W741C/T877A double mutant (unknown origin) transfected in human PC3 cells assessed as inhibition of DHT-induced receptor transcriptional activation after 24 hrs by PSA-luciferase reporter gene assay

Androgen receptor (Homo sapiens, UniProt P10275, F877L), sequence (P10275 whole entry F877L): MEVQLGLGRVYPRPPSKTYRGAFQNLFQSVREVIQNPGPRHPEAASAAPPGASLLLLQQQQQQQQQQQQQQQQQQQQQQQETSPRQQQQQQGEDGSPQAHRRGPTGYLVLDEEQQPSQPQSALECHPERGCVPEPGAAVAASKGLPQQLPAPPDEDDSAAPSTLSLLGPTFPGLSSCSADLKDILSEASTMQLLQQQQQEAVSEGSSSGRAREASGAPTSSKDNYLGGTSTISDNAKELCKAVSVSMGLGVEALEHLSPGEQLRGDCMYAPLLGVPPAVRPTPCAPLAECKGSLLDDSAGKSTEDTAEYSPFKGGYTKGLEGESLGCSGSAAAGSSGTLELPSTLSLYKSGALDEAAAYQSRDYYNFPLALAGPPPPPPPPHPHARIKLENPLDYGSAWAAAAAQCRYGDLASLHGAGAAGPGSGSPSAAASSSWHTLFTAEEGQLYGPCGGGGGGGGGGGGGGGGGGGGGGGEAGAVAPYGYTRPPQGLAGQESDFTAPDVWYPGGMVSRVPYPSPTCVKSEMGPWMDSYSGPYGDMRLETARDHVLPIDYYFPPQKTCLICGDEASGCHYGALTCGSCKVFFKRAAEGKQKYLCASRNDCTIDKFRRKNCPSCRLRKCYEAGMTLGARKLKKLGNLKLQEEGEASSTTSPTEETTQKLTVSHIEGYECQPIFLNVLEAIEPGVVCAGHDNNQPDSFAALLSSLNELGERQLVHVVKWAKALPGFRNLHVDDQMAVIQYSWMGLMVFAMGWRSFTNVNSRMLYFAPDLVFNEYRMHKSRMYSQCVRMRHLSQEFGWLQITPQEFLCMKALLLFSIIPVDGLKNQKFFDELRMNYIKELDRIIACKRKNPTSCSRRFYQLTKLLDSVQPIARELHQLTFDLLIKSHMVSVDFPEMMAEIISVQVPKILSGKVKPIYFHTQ
Androgen receptor (Homo sapiens, UniProt P10275, T878A), sequence (P10275 whole entry T878A): as the sequence (P10275 whole entry F877L) above, with L877F, T878A counted along it
Androgen receptor (Homo sapiens), P10275 [T878A], sequence (P10275 whole entry T878A): as the sequence (P10275 whole entry F877L) above, with L877F, T878A counted along it

## CC(C)[C@]12O[C@H]1[C@@H]1O[C@@]13[C@@]1(C)CCC4=C(COC4=O)[C@@H]1C[C@@H]1O[C@@]13C2=O
[1]
  inhibition: Active
[2]
  inhibition: Active

## CC(C)[C@]12O[C@H]1[C@@H]1O[C@]13[C@]1(O[C@H]1C[C@H]1C4=C(CC[C@@]13C)C(=O)OC4)[C@@H]2O
[1]
  inhibition: Active
[2]
  inhibition: Active

## CC(O)(CS(=O)(=O)c1ccc(F)cc1)C(=O)Nc1ccc(C#N)c(C(F)(F)F)c1 (stereo not given)
PC-3 [3]
  Activity: Active

## CC1(C)[C@@H](O)CC[C@]2(C)[C@H]3CC=C4[C@@H]5C[C@@]6(C)C[C@H](OC6=O)[C@]5(C)CC[C@@]4(C)[C@]3(C)CC[C@@H]12
[2]
  inhibition: Active

## CC1=C(O)C(=O)C=C2C1=CC=C1[C@@]2(C)CC[C@@]2(C)[C@@H]3C[C@](C)(C(=O)O)CC[C@]3(C)CC[C@]12C
[2]
  inhibition: Active

## C[C@@]1(C(=O)O)CC[C@]2(C)CC[C@]3(C)C4=CC(=O)c5c(cc(O)c(O)c5C=O)[C@]4(C)CC[C@@]3(C)[C@@H]2C1
[2]
  inhibition: Active

## CC(C)c1ccc2c(c1O)CC[C@H]1C3=C(CC[C@]21C)C(=O)OC3 [TRIPTOPHENOLIDE]
PC-3 [4]
  growth inhibition (GI): Active
Androgen receptor [5]
  IC50: 467 nM
[6]
  inhibition: Dose-dependent effect
[1]
  inhibition: Active
LNCaP
  growth inhibition (GI): Dose-dependent effect
[7]
  inhibition: Active
[8]
  inhibition: Dose-dependent effect
Androgen receptor [9]
  IC50: 388 nM
[10]
  inhibition: Dose-dependent effect
Androgen receptor [11]
  IC50: 480 nM
[12]
  inhibition: Dose-dependent effect
[2]
  inhibition: Active
[13]
  inhibition: Active
[14]
  inhibition: Dose-dependent effect
Androgen receptor [15]
  IC50: 260 nM
[16]
  inhibition: Active
cells
  IC50: 437 nM
